According to PMC4685510, “A Cell Biologist’s Field Guide to Aurora Kinase Inhibitors” (Frontiers in Oncology, 2015):
“Also recorded” adds a separate entry of the source. Read-outs that look alike come from different tables or passages of the source.

Assays:
[1] = system: pLATS2(Ser 83) in RPE1 cells; assay: Substrate phosphorylation immunofluorescence assay, pLATS2(Ser 83), RPE1; type: cell-based, human; settings: for IC50: Homo sapiens, read-out: pLATS2 (Ser83) IC50
Method: (§1) We employed the protocol described in Figure 3D to analyze substrate phosphorylation in HeLa cells following treatment with all 10 inhibitors in dose–response. Asynchronous cells were incubated with vehicle (DMSO) or different inhibitor doses for 8 h and then fixed and labeled with a mixture of three antibodies directed against pLATS2(Ser 83), pH3(Ser 28), and MPM2 [which detects mitotic phosphoepitopes; ([86])]. While both the anti-pLATS2(Ser 83) and MPM2 antibodies are mouse monoclonals, they are of different IgG subclasses [IgG2b for anti-pLATS2(Ser 83) and IgG1 for MPM2], and can thus be detected with subclass-specific secondary antibodies (Table S3 in Supplementary Material).
(§2) In control mitotic cells, pLATS2(Ser 83) is concentrated in foci around the spindle poles (Figure 3E; top row – green arrow) and pH3(Ser 28) is on the mitotic chromatin (Figure 3E; top row – red arrow). Selective kinase inhibition should result in loss of one signal but not the other, as illustrated by the example images for specific conditions in Figure 3E (middle and bottom rows). Cells were imaged in 4 channels to visualize pLATS2(Ser 83), pH3(Ser 28), MPM2, and DNA (labeled with Hoechst) and mitotic cells were segmented based on their bright MPM2 labeling (Figure 3E). Intensity and area thresholds were set to select the pLATS2(Ser 83) foci and the pH3(Ser 28)-labeled chromatin in their respective channels in DMSO-treated control cells and the same thresholds were applied for inhibitor-treated cells. The mean fluorescence intensity per pixel was measured to assess the activities of the kinases targeting these two substrate phosphorylation sites.
(§3) Twelve thousand HeLa cells, 10,000 U2OS cells, or 8,000 RPE1 cells were seeded into 96-well glass-bottom Sensoplates (Greiner) 16 h before inhibitor addition. Prior to seeding, the glass-bottom plates were coated with poly-L-lysine (Sigma). […] After 8 h cells were fixed with 4% PFA for 20 min at room temperature. The fixed cells were washed with PBS. For immunostaining, cells were permeabilized and blocked with PBS containing 10% normal donkey serum (Jackson ImmunoResearch) and 0.1% Triton-X100 for 1 h at room temperature. Primary antibodies against phospho-LATS2 (Ser 83), phospho-histone H3(Ser 28), and anti-phospho-MPM2 (see Table S3 in Supplementary Material) were incubated for 1 h at room temperature. […] Cells were then washed twice with PBS containing 0.1% Triton-X100. Image acquisition in four channels was performed using a CV7000 spinning disk confocal system (Yokogawa Electric Corporation) with a 40 × 0.95 NA U-PlanApo objective and 2560 × 2160 pixel sCMOS camera. […] Fifty fields per well were imaged with quadruplicate wells for each condition. Image analysis was done using the CV7000 image analysis software (Yokogawa Electric Corporation). Between 100 and 1,000 mitotic cells per condition were segmented applying object identification parameters to select for bright MPM2 labeling. Using a nuclear identifier protocol, minimum intensity thresholds were set for pLATS2(Ser 83) and the pH3(Ser 28) signals, and the resulting identified objects were eroded, dilated, and filtered for size by user-defined thresholds. For only the MPM2-positive mitotic cells, the mean fluorescence intensity of the identified pLATS2(Ser 83) and pH3(Ser 28) objects was measured, and the average intensity per cell per well was calculated. The same thresholds were applied for all of the inhibitor-treated samples, which were processed, imaged, and analyzed in parallel with control DMSO-treated cells. Data were fit using a four-parameter, variable slope fit in Prism (GraphPad). Primary and secondary antibody dilutions can be found in Table S3 in Supplementary Material.

[2] = system: pLATS2(Ser 83) in U2OS cells; assay: Substrate phosphorylation immunofluorescence assay, pLATS2(Ser 83), U2OS; type: cell-based, human; settings: for IC50: Homo sapiens, read-out: pLATS2 (Ser83) IC50
Method: as §1, §2, §3

[3] = system: pAuroraB(Thr 232), pH3(Ser 10), pH3(Ser 28) in HeLa cells; assay: Immunoblotting of pAuroraB(Thr 232), pH3(Ser 28) and pH3(Ser 10); type: cell-based, human; settings: immunoblot; for Effect on pH3(Ser 10), pH3(Ser 28), pAuroraB(Thr 232): dose–response
[4] = system: pLATS2(Ser 83) in HeLa cells; assay: Substrate phosphorylation immunofluorescence assay, pLATS2(Ser 83), HeLa; type: cell-based, human
Method: as §1, §2, §3

[5] = target: 363 human kinases (including Aurora A/B/C) (Homo sapiens, UniProt P51617); assay: biochemical; type: biochemical; settings: IRAK1; for remaining activity at 0.1 µM: 100 nM; for remaining activity at 0.1 µM / remaining activity at 0.5 µM: read-out: % Enzyme Activity (relative to DMSO controls)
Description: (§4) However, the Aurora A/B selectivity ratios derived from our in vitro and in vivo data can be compared to prioritize inhibitors.

[6] = target: 363 human kinases (including Aurora A/B/C) (Homo sapiens, UniProt Q9HC98); assay: biochemical; type: biochemical; settings: NEK6; for remaining activity at 0.1 µM: 100 nM; for remaining activity at 0.1 µM / remaining activity at 0.5 µM: read-out: % Enzyme Activity (relative to DMSO controls)
Description: as §4

[7] = target: T1, 363 human kinases (including Aurora A/B/C) (Homo sapiens, UniProt P52564); assay: biochemical; type: biochemical; settings: MKK6; for remaining activity at 0.1 µM: 100 nM; for remaining activity at 0.1 µM / remaining activity at 0.5 µM: read-out: % Enzyme Activity (relative to DMSO controls)
T1 sequence (P52564 1-334): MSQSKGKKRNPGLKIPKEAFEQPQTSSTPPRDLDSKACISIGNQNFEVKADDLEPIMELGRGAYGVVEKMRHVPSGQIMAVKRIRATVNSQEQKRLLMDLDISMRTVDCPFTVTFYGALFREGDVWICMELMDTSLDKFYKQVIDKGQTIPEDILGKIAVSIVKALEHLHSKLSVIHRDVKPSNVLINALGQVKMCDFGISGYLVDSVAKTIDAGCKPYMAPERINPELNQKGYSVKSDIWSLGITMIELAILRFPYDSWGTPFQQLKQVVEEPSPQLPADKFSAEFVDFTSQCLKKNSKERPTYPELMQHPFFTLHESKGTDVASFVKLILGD
Description: as §4

[8] = system: pH3(Ser 28) in RPE1 cells; assay: Substrate phosphorylation immunofluorescence assay, pH3(Ser 28), RPE1; type: cell-based, human
Method: After 8 h cells were fixed with 4% PFA for 20 min at room temperature. The fixed cells were washed with PBS. For immunostaining, cells were permeabilized and blocked with PBS containing 10% normal donkey serum (Jackson ImmunoResearch) and 0.1% Triton-X100 for 1 h at room temperature. Primary antibodies against phospho-LATS2 (Ser 83), phospho-histone H3(Ser 28), and anti-phospho-MPM2 (see Table S3 in Supplementary Material) were incubated for 1 h at room temperature. […] Cells were then washed twice with PBS containing 0.1% Triton-X100. […] Fifty fields per well were imaged with quadruplicate wells for each condition. Image analysis was done using the CV7000 image analysis software (Yokogawa Electric Corporation). Between 100 and 1,000 mitotic cells per condition were segmented applying object identification parameters to select for bright MPM2 labeling. Using a nuclear identifier protocol, minimum intensity thresholds were set for pLATS2(Ser 83) and the pH3(Ser 28) signals, and the resulting identified objects were eroded, dilated, and filtered for size by user-defined thresholds. […] The same thresholds were applied for all of the inhibitor-treated samples, which were processed, imaged, and analyzed in parallel with control DMSO-treated cells. Data were fit using a four-parameter, variable slope fit in Prism (GraphPad).

Chain of 363 human kinases (including Aurora A/B/C) (Homo sapiens, UniProt P51617) (P51617 whole entry): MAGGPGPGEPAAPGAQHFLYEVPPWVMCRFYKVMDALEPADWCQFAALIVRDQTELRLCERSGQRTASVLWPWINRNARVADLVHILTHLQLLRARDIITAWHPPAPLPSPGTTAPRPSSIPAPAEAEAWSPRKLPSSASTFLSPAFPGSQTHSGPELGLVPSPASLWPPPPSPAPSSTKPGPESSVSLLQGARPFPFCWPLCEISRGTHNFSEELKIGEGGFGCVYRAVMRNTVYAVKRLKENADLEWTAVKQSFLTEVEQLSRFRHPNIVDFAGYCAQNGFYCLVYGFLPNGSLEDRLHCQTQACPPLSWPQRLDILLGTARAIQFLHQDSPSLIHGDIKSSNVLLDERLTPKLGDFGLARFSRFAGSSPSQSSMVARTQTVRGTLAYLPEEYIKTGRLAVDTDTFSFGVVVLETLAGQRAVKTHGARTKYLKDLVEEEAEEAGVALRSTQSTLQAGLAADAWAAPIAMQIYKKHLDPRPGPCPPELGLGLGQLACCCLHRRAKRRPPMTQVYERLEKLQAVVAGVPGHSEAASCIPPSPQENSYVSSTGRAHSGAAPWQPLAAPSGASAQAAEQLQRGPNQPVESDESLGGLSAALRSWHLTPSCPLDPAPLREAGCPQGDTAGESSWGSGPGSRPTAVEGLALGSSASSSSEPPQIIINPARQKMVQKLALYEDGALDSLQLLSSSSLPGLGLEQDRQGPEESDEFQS
Chain of 363 human kinases (including Aurora A/B/C) (Homo sapiens, UniProt Q9HC98) (Q9HC98 whole entry): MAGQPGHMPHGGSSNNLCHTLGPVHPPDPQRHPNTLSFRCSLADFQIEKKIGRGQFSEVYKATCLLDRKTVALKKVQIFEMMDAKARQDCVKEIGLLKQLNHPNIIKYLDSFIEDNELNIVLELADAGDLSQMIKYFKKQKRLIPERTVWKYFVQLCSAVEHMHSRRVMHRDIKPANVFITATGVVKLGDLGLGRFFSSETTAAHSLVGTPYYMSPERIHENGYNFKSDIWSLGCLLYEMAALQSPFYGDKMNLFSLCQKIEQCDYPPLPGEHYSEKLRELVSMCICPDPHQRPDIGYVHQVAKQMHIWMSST

`CCn1cc(-c2ccnc3[nH]c(-c4cccc(CN(C)C)c4)cc23)c(-c2ccc(NC(=O)N(C)C)cc2)n1` [GSK1070916] was tested, and the “pLATS2 (Ser83) IC50” value ([1]; RPE1, 8 h inhibitor treatment) was “NE@200 nM”, the “pLATS2 (Ser83) IC50” value ([2]; 8 h inhibitor treatment) was “NE@200 nM” and the “Concentration eliminating Aurora B activity without affecting pAuroraA (Thr 288)” value [3] was under 100 nM. For the same compound, the “Effect on pH3(Ser 10), pH3(Ser 28), pAuroraB(Thr 232)” value (“Effect” below) [3] was “eliminated”, the “pLATS2 (Ser83) IC50” value ([4]; HeLa, 8 h inhibitor treatment) was “NE (100 nM); also recorded: NE@100 nM” and the remaining activity at 0.1 µM [5] was 122%. It also gave a remaining activity at 0.1 µM [6] of 109%, a remaining activity at 0.1 µM [7] of 85.3% and an IC50 ([8]; Homo sapiens, RPE-1, 8 h, read-out: pHistone H3 (Ser28) IC50) of 15 nM.

`O=C(O)[C@]1(Cc2cccc(Nc3nccs3)n2)CC[C@@H](Oc2cccc(Cl)c2F)CC1` [MK-5108] was tested, and the IC50 ([1]; RPE-1, 8 h) was 1800 nM, the IC50 ([2]; 8 h) was 1200 nM and the “Effect” value [3] was “no effect”. It also gave an IC50 ([4]; Homo sapiens, HeLa, 8 h, read-out: pLATS2 (Ser83) IC50, HeLa, 8 h inhibitor treatment) of 600 to 800 nM, an IC50 ([4]; read-out: pLATS2 (Ser83) IC50, HeLa, 8 h inhibitor treatment) of 610 nM and a remaining activity at 0.1 µM [5] of 5.35%. The remaining activity at 0.5 µM ([5]; 500 nM) was 1.01%, the remaining activity at 0.1 µM [6] was 87% and the remaining activity at 0.5 µM ([6]; 500 nM) was 115%. It also gave a remaining activity at 0.1 µM [7] of 95.4%, a remaining activity at 0.5 µM ([7]; 500 nM) of 76.7% and an inhibition at 15 µM ([8]; Homo sapiens, RPE-1, read-out: pHistone H3 (Ser28) inhibition at highest concentration tested) of 80%.

With `O=C(c1cccc(Cl)c1F)N1CCN(Cc2cccc(Nc3nccs3)n2)CC1` [MK-8745] the IC50 ([1]; RPE-1, RPE1, 8 h inhibitor treatment) was 2300 nM, the IC50 ([2]; 8 h inhibitor treatment) was 1700 nM and the “Effect” value [3] was “no effect”. For the same compound, the IC50 ([4]; HeLa, 8 h inhibitor treatment, read-out: pLATS2 (Ser83) IC50) was 610 nM, the IC50 ([4]; Homo sapiens, HeLa, 8 h, HeLa, 8 h inhibitor treatment, read-out: pLATS2 (Ser83) IC50) was 600 to 800 nM and the “Lowest concentration to maximally inhibit Aurora A in cells relative to lowest AZD1152-HQPA concentration to fully inhibit Aurora B” value ([4]; cellular assays) was over 100 fold. The “% Enzyme Activity (relative to DMSO controls)” value ([5]; 500 nM) was 18.29%, the remaining activity at 0.5 µM ([5]; 500 nM) was 19% and the “% Enzyme Activity (relative to DMSO controls)” value ([6]; 500 nM) was 99.72%. The remaining activity at 0.5 µM ([6]; 500 nM) was 102%, the “% Enzyme Activity (relative to DMSO controls)” value ([7]; 500 nM) was 66.22% and the remaining activity at 0.5 µM ([7]; 500 nM) was 68%. For the same compound, the “pHistone H3 (Ser28) IC50” value ([8]; RPE1, 8 h inhibitor treatment) was “NE@15 µM”.
